Results taken from patent US5064856A, “Novel HMG-CoA synthase inhibitors” (Merck & Co., Inc., priority 1989, dated 1991).
pIC50: −log10 of the molar value.

Target: T1, HMG-CoA synthase (Rattus norvegicus, UniProt P17425)
T1 construct: The livers from male Charles River CD rats (225-350 g) were homogenized in 0.25M sucrose; from tissue; host or cells: liver of male Charles River CD rats
T1 sequence (P17425 1-520): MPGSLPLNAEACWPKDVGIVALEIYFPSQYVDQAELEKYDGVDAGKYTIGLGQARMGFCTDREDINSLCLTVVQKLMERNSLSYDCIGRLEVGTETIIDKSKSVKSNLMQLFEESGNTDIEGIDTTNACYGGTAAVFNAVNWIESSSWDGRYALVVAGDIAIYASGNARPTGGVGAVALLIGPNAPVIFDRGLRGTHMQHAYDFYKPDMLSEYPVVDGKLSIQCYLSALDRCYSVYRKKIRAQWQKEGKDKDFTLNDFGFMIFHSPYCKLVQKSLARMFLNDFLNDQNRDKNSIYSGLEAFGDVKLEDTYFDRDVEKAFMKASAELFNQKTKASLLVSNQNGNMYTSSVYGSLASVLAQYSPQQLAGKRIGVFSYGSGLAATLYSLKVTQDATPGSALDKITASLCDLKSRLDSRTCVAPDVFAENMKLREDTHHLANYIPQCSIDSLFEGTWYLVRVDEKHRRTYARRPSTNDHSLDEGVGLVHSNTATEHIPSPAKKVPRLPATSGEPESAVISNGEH
Assay: HMG-CoA synthase inhibition assay
Assay type: biochemical
Details: enzyme from rat liver; 5 min preincubation, 30°, pH 8.0; [14C]-acetyl-CoA
Experimental: The intrinsic HMG--CoA synthase inhibition activity of the compounds of this invention is measured by the standard in vitro protocol described below:
The livers from male Charles River CD rats (225-350 g) were homogenized in 0.25M sucrose which was adjusted with phenylmethylsulfonylfluoride (PMSF) and N-p-tosyl-1-lysine chloromethyl ketone (TLCK) so that the final concentration of each was 50 and 25 μg/ml, respectively. The homogenate was first centrifuged at 700×g for 10 minutes, the supernatant decanted and recentrifuged at 7,700×g for 20 minutes. This supernatant was filtered through a fine nylon screen to remove most of the fat layer and recentrifuged at 100,000×g for 1 hour. This supernatant was removed and 1M potassium phosphate, dithiothreitol (DTT) and ethylene glycolbis(β-aminoethyl ether)-N,N,N',N'-tetraacetic acid (EGTA) added to give a final concentration of 0.1M (pH 7.2), 0.5 mM and 0.1 mM, respectively. Solid ammonium sulfate was added to 50% saturation to the protein solution, it was centrifuged at 15,000×g and the supernatant discarded. This precipitated protein could be stored at -70° C. for at least one month with very little loss of activity. The ammonium sulfate precipitate was dissolved in an minimal amount of 0.06M potassium phosphate buffer (pH 7.2) containing 0.5 mM dithiothreitol and 0.1 mM EGTA (referred to as 0.06M phosphate buffer) and dialyzed overnight against 2 liters of the same buffer to remove the ammonium sulfate and to inactivate HMG--CoA lyase [Clinkenbeard, et al., J. Biol. Chem. 250, 3108-3116 (1975)].
The dialyzed extract was added to a column of DEAE-52 (Whatman) which had been equilibrated with 0.06M phosphate buffer (10 mg of protein to 1 ml bed volume of the resin). The DEAE-cellulose was eluted with 0.06M phosphate buffer until the optical density at 280 nm was essentially zero. This fraction contained the β-ketoacetyl-CoA thiolase activity. The HMG--CoA synthase was eluted from the column with 0.1M KCl in 0.06M phosphate buffer (pH 7.2) containing 0.5 mM DTT and 0.1 mM EGTA, and was virtually free of all thiolase activity. The protein was precipitated by the addition of ammonium sulfate to give 50% saturation. This solution was stirred for 10 minutes at 4° C. and the precipitate collected by centrifugation at 15,000 rpm for 10 minutes. The supernatant was discarded and the precipitate dissolved in a minimum of 0.06M phosphate buffer, pH 7.2 (about 10 ml) and the enzyme stored at -80° C.
HMG-- CoA Synthase Inhibition Assay
Enzyme protein (ca. 12.2 μg) was added to a solution containing 117 mM Tris-HCl (pH 8.0), 11.7 mM MgCl2, 1.17 mM Ethylenediaminetetraacetic acid (EDTA), 0.58 mM dithiothreitol, and the indicated concentrations of the test compound (added as a 2 μg/ml solution in dimethylsulfoxide). The incubation took place in a volume of 0.085 ml at 30° in a shaking water bath. After 5 minutes, 15 μl of a solution containing acetoacetyl-CoA and 0.1 μCi of 1-[^14 C]-acetyl-CoA was added to give a final concentrations of 0.1 and 0.4 mM, respectively. […] Radioactivity was determined in a Packard Tri-Carb liquid scintillation counter. Percent inhibition is calculated by the formula: [formula] IC50 values were determined by plotting the log of the concentration of the test compound verses the percentage inhibition and fitting a straight line to the resulting data by using the least squares method.

In the case of `CC=CCCCCC=CC(=O)NC(CC1(O)C(=O)C2OC2C2OC21)C(=O)OC` (stereo not drawn) [Compound B, 3,8-Dioxatricyclo(5.1.0.0^2,^4)octane-5-propanoic acid, 5-hydroxy-6-oxo-α-((1-oxo-2,8-decadienyl)amino)-, methyl ester], the pIC50 was 6.74.

Compound `CC=CCCCCC=CC(=O)NC1CC2(OC1=O)C(O)C1OC1C1OC12` (centres unmarked) [Compound A] has a pIC50 of 5.16.

Work on `CC=CCCCCC=CC(=O)NC1CC2(OC1=O)C(=O)C1OC1C(O)C2O` (centres unmarked) [Compound A-2, N-(4,5-dihydro-4',5'-dihydroxy-2',5-dioxospiro[furan-2(3H),3'-[7]oxabicyclo[4.1.0]-hept]-4-yl)-2,8-decadienamide] yielded a pIC50 of 5.60.

With `CC=CCCCCC=CC(=O)NC1CC2(OC1=O)C(O)C1OC1C1OC12` (centres unmarked) [Compound A-1] the pIC50 was less than 5.00.

Work on `CC=CCCCCC=CC(=O)NC1CC2(OC1=O)C(=O)C1OC1C1OC12` (centres unmarked) [Compound C] yielded a pIC50 of 6.44.
